Experimental data reported in US6664274B1, “Piperidine derivatives as serotonine reuptake inhibitors” (Eli Lilly and Company, priority 1999, dated 2003).
Where a name gives a salt, the structure may show the parent alone.

## OC(C1CCCCC1)C(CCN1CC=C(c2cccc3sccc23)CC1)c1ccccn1 (stereo not shown) (as salt: oxalate)
  melting point: 80 to 85 °C
